Source: the supplement of paper PMC5770543
± gives the standard deviation.

What was measured:
[1] = test system: Plasmodium falciparum 3D7; test: EC50 growth inhibition (60 h, SYBR Green); details: stage: ring-stage start
[2] = test system: Plasmodium falciparum 3D7; test: R50 (50% reduction of ring formation, egress/invasion); higher = less potent
Description: (§1)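 P. falciparum asexual blood stages. EC50: sorbitol-synchronized 3D7 rings were treated with 2-fold dilutions from 10 µM for 60 h, with parasitemia read by SYBR Green I fluorescence; EC50 listed as 10 means not determined and is left out. Stage transition screen: ~40-42 hpi schizonts were treated at 1, 3 and 10 µM; new rings were counted by Hoechst flow cytometry and % inhibition is relative to DMSO controls (mean of 3 experiments). R50: concentration giving 50% reduction of new ring formation versus DMSO in 3D7, K1 and KH004-003, from flow cytometry after 12-20 h treatment of schizonts.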

[3] = test system: Plasmodium falciparum K1 (chloroquine resistant); test: as above
Description: as §1

[4] = test system: Plasmodium falciparum KH004-003 (artemisinin resistant); test: as above
Description: as §1

[5] = test system: Toxoplasma gondii RH tachyzoites; test: median egress time after A23187 ionophore; higher = stronger egress inhibition; details: 10 µM; pretreatment time: 24 h
Description: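 T. gondii RH tachyzoites expressing firefly luciferase were grown in HFF monolayers for 48 h with compound. % growth inhibition at 10 µM and EC50 (2-fold dilutions from 10 µM) were read by luminescence relative to 1% DMSO; EC50 listed as 10 (not determined, <80% inhibition) is left out. Plaque assays: 50 tachyzoites per well with 10 µM compound for 8-10 days, giving plaque count and area by crystal violet/ImageJ. Egress: median time to egress after 1 µM A23187 ionophore following 24 h of 10 µM compound (DMSO ~1.8 min; >10 = no egress within 10 min).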

[6] = test system: Toxoplasma gondii RH tachyzoites; test: % growth inhibition vs DMSO (48 h luciferase); higher = more inhibition; details: 10 µM
[7] = test system: Plasmodium falciparum 3D7; test: % inhibition of schizont-to-ring transition vs DMSO; higher = more inhibition
Method in brief: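 Schizont-to-ring transition inhibition is the formation of new rings relative to vehicle controls. Tightly synchronised P. falciparum schizonts at about 40–42 hours post-invasion (1% parasitemia, 2.5% hematocrit, AlbuMAX-supplemented RPMI) were treated with compound at 1, 3 or 10 µM, alongside vehicle and positive controls. After glutaraldehyde fixation, Triton permeabilisation and Hoechst 33342 staining, at least 100,000 events were counted by flow cytometry, and values are the mean of three experiments.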

[8] = test system: Toxoplasma gondii RH tachyzoites; test: plaque count per well; higher = less inhibition; extreme values may be limits of the assay; details: 10 µM; 8-10 days
Method in brief: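 Delayed-death inhibition of parasite growth is read from the number of plaques per well. Fifty T. gondii RH tachyzoites went into each well of six-well plates with confluent HFF monolayers preseeded with compound at 10 µM, and after 8 to 10 days the plates were fixed with methanol, stained with crystal violet and counted in ImageJ.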

[9] = molecular target: Toxoplasma gondii RH tachyzoites; test: EC50 growth inhibition (48 h luciferase)
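For % growth inhibition vs DMSO (48 h luciferase) in this document: tested in triplicate wells of 96-well plates on confluent HFF monolayers, with 1% DMSO wells as negative control in four replicates.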

Row | SMILES | EC50 growth inhibition [1] [nM] | R50 [2] [µM] | R50 [3] [µM] | R50 [4] [µM] | median egress time [5] [min] | % growth inhibition [6] [%] | % inhibition of schizont-to-ring transition ([7]; 1 µM) [%] | % inhibition of schizont-to-ring transition ([7]; 3 µM) [%] | % inhibition of schizont-to-ring transition ([7]; 10 µM) [%] | plaque count per well [8] | EC50 growth inhibition [9] [nM]
1 | COc1ccc(CCn2c(=N)c(C(=O)NCc3cccnc3)cc3c(=O)n4cccc(C)c4nc32)cc1 | 353 | 2.26 | 2.1 | 0.771 | 2.13 | 75.9 ± 1.6 | 40.3 | 65.1 | 66.9 | – | –
2 | CC1(c2ccccc2)Nc2ccccc2-c2nc3ccccc3n21 (stereo not given) | 194 | 0.768 | 0.955 | 0.275 | 4.13 | 24.3 ± 8 | 56.1 | 77.5 | 79 | – | –
3 | OC(Cn1nnc2ccccc21)Cn1c2ccc(Br)cc2c2cc(Br)ccc21 (stereo not given) | – | 2.87 | 1.23 | 0.102 | – | 22.8 ± 3.4 | < 0 | 30.6 | 45.7 | – | –
4 | COc1cccc(O)c1CN1CCC2(CCCN(Cc3ccc(F)cc3)C2)C1 (stereo not given) | 409 | 1.91 | 0.805 | 1.23 | – | 79.6 ± 3.5 | 42.2 | 68.4 | 72.4 | – | –
5 | COc1cc(OC)c(N(C)C(=O)c2cc3c(s2)-c2ccccc2S(=O)(=O)C3)cc1Cl | 1190 | 0.868 | 0.933 | 0.352 | 8.4 | < 0 | 55.9 | 60 | 66.3 | 33 | –
6 | Cc1cc(Nc2ccc(OCc3ccccc3)cc2)nc2cc(O)ccc12 | 195 | 0.97 | 0.291 | 0.702 | – | 100.3 ± 0.21 | 64.2 | 71.9 | 69.8 | – | 2850
7 | COc1cccc(NC(=O)[C@H](C(C)C)n2c(=O)[nH]c3ccccc3c2=O)c1 | 51.4 | 0.28 | 0.212 | 0.183 | 2.67 | 76.9 ± 9.3 | 79.8 | 80.5 | 79.4 | – | –
8 | Cc1sc2ncnc(Sc3nc4ccccc4[nH]3)c2c1C | 860 | 2.43 | 1.69 | 0.464 | – | 95.05 ± 0.6 | 47.8 | 59.6 | 77.8 | – | 2950
9 | COc1cc(-c2nc(-c3ccccc3)c(-c3ccccc3)[nH]2)cc(OC)c1O | 8620 | – | – | – | 2.93 | 6.6 ± 11 | 13.7 | 15.2 | 37.4 | 22 | –
10 | COc1ccc(NC(=O)C2c3ccccc3C(=O)N(CC(C)C)C2c2cccs2)cc1Cl (stereo not given) | 1040 | 0.156 | 0.183 | 0.204 | – | < 0 | 75.7 | 74.9 | 78.9 | 28 | –
11 | Oc1ccc(Br)cc1CN1CCN(Cc2cccc(F)c2)CC1 | 787 | – | – | – | 2.27 | 6.13 ± 7.3 | 19 | 40.9 | 60.6 | 21 | –
12 | COc1ccc2c(c1)C1(Nc3ccccc3-c3nc4ccccc4n31)C(=O)N2 (stereo not given) | 138 | 0.892 | 0.768 | 0.922 | 2.33 | 47.3 ± 3.5 | 62 | 64.1 | 68.6 | – | –
13 | CC(=O)NCCc1nc2ccccc2n1Cc1ccc(C(C)C)cc1 | 900 | 3.03 | 3.69 | 3.03 | 5.47 | < 0 | 37.3 | 61 | 78.1 | 33 | –
14 | OC(CNC1CCCCC1)Cn1c2ccc(I)cc2c2cc(I)ccc21 (stereo not given) | 591 | – | – | – | 1.33 | < 0 | 39.7 | 69 | 73.8 | 3 | –
15 | CN1CCN(c2ccc(Nc3c4ccccc4nc4ccccc34)cc2)CC1 | 59.9 | 1.39 | 1.94 | 0.883 | – | 100 ± 0.36 | 68.6 | 75.5 | 77.1 | – | 2320
16 | CCOc1cc2c(cc1OCC)C(c1cc(OC)c(O)cc1Cl)NCC2 (stereo not given) | 711 | 2.71 | 0.342 | 1.32 | 2.27 | 37.4 ± 13 | 11.2 | 60 | 76.1 | – | –
17 | COc1cccc(-c2nn(C)c3sc(C(=O)NCCN4CCN(c5ccccc5F)CC4)cc23)c1 | 4200 | – | – | – | 2.93 | 1.85 ± 3.2 | 12.9 | 36.3 | 60.8 | 31 | –
18 | Cc1cc(Nc2ccc(C)c(Cl)c2)n2nc(C(F)(F)F)nc2n1 | 12.5 | 0.274 | 0.212 | 0.1 | 2.46 | 23.8 ± 9.5 | 51.6 | 56.6 | 65.1 | – | –
19 | CCOc1c(Cl)cc(CNC(C)C(O)c2ccccc2)cc1OC (stereo not given) | 926 | 3.32 | 1.56 | 2.58 | 3.47 | 18.8 ± 18 | 2.61 | 19.5 | 72.7 | 0 | –

Row | SMILES | EC50 growth inhibition [1] [nM] | R50 [2] [µM] | R50 [3] [µM] | R50 [4] [µM] | median egress time [5] [min] | % growth inhibition [6] [%] | % inhibition of schizont-to-ring transition ([7]; 1 µM) [%] | % inhibition of schizont-to-ring transition ([7]; 3 µM) [%] | % inhibition of schizont-to-ring transition ([7]; 10 µM) [%] | plaque count per well [8] | EC50 growth inhibition [9] [nM]
20 | CCCCCCc1cc2cc(-c3csc(C=Cc4ccccc4)n3)c(=O)oc2cc1O | 8400 | – | – | – | 1.94 | 8.97 ± 4.1 | 9.04 | 16 | 39.7 | 16 | –
21 | CCOc1ccccc1CNC(=O)C1c2ccccc2C(=O)N(CC(C)C)C1c1cccs1 (stereo not given) | 649 | 2.06 | 2.11 | 2.32 | – | 70.7 ± 11 | 38.3 | 65.3 | 74.8 | – | –
22 | Cc1cc(C)c2c(c1)OCN(Cc1ccccc1Cl)C2 | 3620 | – | – | – | 2 | 4.95 ± 8.6 | < 0 | 17.9 | 59.9 | 27 | –
23 | CCOC(=O)c1cn(CC)c2cc(N3CCCCC3)c(F)cc2c1=O | 670 | 0.738 | 1.48 | 0.155 | – | 67.3 ± 6.7 | 45.5 | 61.4 | 65.5 | – | –
24 | COc1ccc2sc(N(Cc3cccnc3)C(=O)c3ccc(C#N)cc3)nc2c1 | 6590 | – | – | – | > 10 | < 0 | 35.3 | 39.1 | 51.7 | 21 | –
25 | COc1cccc(C2(C)Nc3ccccc3-c3nc4ccccc4n32)c1 (stereo not given) | 217 | 1.13 | 1.17 | 0.715 | > 10 | 12.6 ± 12 | 66 | 81.1 | 81.2 | 21 | –
26 | O=C(NC1CCCCC1)C(c1cccs1)N(CCc1ccccc1)C(=O)c1ccco1 (stereo not given) | 1720 | – | – | – | 2.06 | < 0 | 38.6 | 42 | 46.4 | 39 | –
27 | COc1ccccc1C(=O)ON=C(N)Cc1cccc2ccccc12 | 244 | 3.9 | 3.93 | 1.25 | – | 73.6 ± 2.5 | 12 | 43.7 | 78.8 | – | –
28 | CCOC(=O)c1c(NC(=O)c2ccccc2)sc2c(O)c(CN(CC)CC)ccc12 | 8.57 | 0.186 | 0.103 | 0.138 | 2.13 | 65.8 ± 12 | 57.2 | 69.3 | 71.9 | – | –
29 | COc1ccc(C2c3ccc4ccccc4c3Oc3ncn(CCCn4ccnc4)c(=N)c32)cc1OC (stereo not given) | 383 | 2.5 | 2.92 | 2.4 | 2.27 | 65.4 ± 9 | 40 | 73.6 | 75.6 | – | –
30 | CCN(Cc1ccccc1)C1CCN(Cc2cc(Br)ccc2O)CC1 | 310 | 0.998 | 0.491 | 0.532 | > 10 | < 0 | 59.3 | 74.2 | 76.9 | 24 | –
31 | CC(C)(C)c1ccc(O)c(CNC2CCCCC2)c1 | 93.3 | 0.305 | 0.119 | 0.215 | 2.8 | 7.99 ± 2.4 | 70.4 | 76.8 | 76.9 | 0 | –
32 | O=C(NC1CCN(Cc2ccccc2)CC1)c1cc(C(=O)NC2CCN(Cc3ccccc3)CC2)cc(C(=O)NC2CCN(Cc3ccccc3)CC2)c1 | 1670 | 3.38 | 0.179 | 1.42 | 2.33 | 18.9 ± 16 | 25.8 | 30.4 | 53.7 | 35 | –
33 | CCOc1ccccc1CN1CCc2nc3cc(C(C)(C)C)nn3c(O)c2C1 | 2290 | – | – | – | 1.47 | < 0 | 34.2 | 42.8 | 49.8 | 28 | –
34 | CNCCCNc1ccnc2cc(Cl)ccc12 | 25.8 | 0.345 | 4.11 | 3.81 | 2.4 | 21.4 ± 19 | 61.4 | 66.5 | 71.6 | – | –
35 | Cc1cc(NC(=O)C2c3ccccc3C(=O)N(CC(C)C)C2c2cccs2)no1 (stereo not given) | 64 | 0.363 | 0.307 | 0.43 | 5.73 | < 0 | 76.6 | 76.8 | 78.6 | 29 | –
36 | CCOc1cc(Cl)c(C(C)NC(=O)c2ccccc2)cc1OCC (stereo not given) | 1450 | – | – | – | 2.67 | < 0 | 46.5 | 78.6 | 76.7 | 22 | –
37 | CC(NCc1ccccc1)c1cc(Cl)ccc1O (stereo not given) | 801 | – | – | – | 2.27 | 14.9 ± 6 | 29.2 | 44.4 | 66.6 | 29 | –
38 | Cc1cc(NC(=O)c2ccc(-c3ccccc3)cc2)no1 | 1810 | – | – | – | 2.27 | < 0 | 45.3 | 53.4 | 61.7 | 26 | –
